# Measurements taken from publication PMC5736782, “The Differential Absorption of a Series of P-Glycoprotein Substrates in Isolated Perfused Lungs from Mdr1a/1b Genetic Knockout Mice can be Attributed to Distinct Physico-Chemical Properties: an Insight into Predicting Transporter-Mediated, Pulmonary Specific Disposition” (Pharmaceutical Research, 2017).
# Assays:
# [1] = Immobilised artificial membrane (IAM) chromatography; format: physicochemical; conditions: extrapolated to 100% water; mean of four experiments
# Experimental: IAM chromatography provided an experimental measure of substrate membrane affinity and phospholipid interaction. The IAM column (Regis Technologies Inc., Hichrom, Reading, UK; IAM.PC.DD2 10 cm x 4.6 mm ID column) was run under isocratic eluting conditions with the retention of all compounds determined under three mobile phase conditions: 10%, 20% and 30% acetonitrile in water, and from which the theoretical retention time in 100% water was calculated by linear regression. LogK^IAM values were calculated according to Eq. 2:2 LogK^IAM=LogTr−T0/T0
# where Tr and T0 are respectively the retention times of the substrate in 100% water and of the unretained compound, i.e. eluting within the solvent front of 75 s in all experiments.
# [2] = test system: P-gp (Mdr1a/1b) in mouse intestinal segments; assay: Ussing chamber intestinal permeability, ileal segments Mdr1a/1b (+/+) vs (−/−); conditions: for Mdr1a/1b (−/−) Permeability coefficient: P-gp knockout intestinal segments; for Mdr1a/1b (−/−) Permeability coefficient / Mdr1a/1b (+/+) Permeability coefficient: mucosal to serosal, 50 μM, 180 min; for Ratio Permeability (−/−): (+/+): intestinal Papp KO:WT; for Mdr1a/1b (+/+) Permeability coefficient: wild-type intestinal segments
# Experimental: The bathing fluid for both mucosal and serosal surfaces (3 mL volume in each chamber) comprised oxygenated Krebs-Henseleit buffer maintained at 37°C (heating block) under stirred conditions (gas flow manifold). […] Any intestinal segments presenting an initial TEER of lower than 80 Ω.cm^2 were discarded prior to the experiment, likewise any segments whose TEER decreased by more than 10% over the course of the experiment were excluded.
# Thereafter permeability coefficients were determined according to Eq. 4:4 ρ=dM/dt/A^∗C0
# [3] = Multi-lamellar liposome vesicle (MLV) partitioning; format: physicochemical; conditions: (C0−CS)/C0, 1 μg/mL, 4 h, 37°C, PBS pH 7.4
# Experimental: MLVs were formed as previously described ([20]). Briefly, solutions of 8 mg phosphatidylcholine and 2 mg phosphatidylglycerol in 10 mL chloroform were completely dried to a lipid film (rotation under vacuum).
# These preparations were then incubated at 37°C for 4 h under shaking conditions to allow equilibration of compound between the lipid and aqueous fractions. The MLVs were then pelleted and 100 μL of supernatant removed for analysis by radiometric or LC-MS/MS methods as described above. Partitioning into the MLVs was determined according to Eq. 3:3 MLVpartitioning=C0−CS/C0
# where C0 is the initial compound concentration (1 μg/mL) and CS is the compound concentration present in the aqueous supernatant at the end of 4 h incubation.
# [4] = test system: P-glycoprotein (Mdr1a/Mdr1b) in isolated perfused mouse lung; assay: Isolated perfused mouse lung (IPML) airway-to-perfusate absorption, Mdr1a/1b (+/+) vs (−/−); conditions: for Mdr1a/1b (+/+) ‘F’ estimate by model fit [95% CI) / Mdr1a/1b (-/-) ‘F’ estimate by model fit [95% CI) / Ratio AUCs (-/-) : (+/+) / Mdr1a/1b (+/+) % Deposited Dose absorbed / Mdr1a/1b (-/-) % Deposited Dose absorbed: male, mouse, 50 μM; for Mdr1a/1b (+/+) % Deposited Dose absorbed / Mdr1a/1b (-/-) % Deposited Dose absorbed: 30 min
# Experimental: The atria and the lower half of the heart were cut to allow the free flow of perfusate. The lungs were removed and suspended vertically in a custom water-jacketed glass thorax (Radleys, Essex, UK) maintained at 37°C.
# Following dosing of compound into the IPML airways serial samples (250 μL) were collected for bioanalysis from the 10 mL recirculating perfusate reservoir. Each sample collected from the reservoir was replaced with an equal volume of fresh warmed, oxygenated perfusate. Upon termination of the experiment the dose solutions, apparatus washings and perfusate samples were collected for mass balance calculations enabling determination of the actual total dose delivered to the lungs.
# Radioactive compounds were directly analysed by liquid scintillation counting. Volumes of 50 μL perfusate samples were mixed with 3 mL of Scintisafe 3 Liquid Scintillation Fluid (Fisher, UK) and transferred to vials for scintillation counting using a TriCarb 2900TR (Packard Bioscience, USA).
# After accounting for the mass of compound removed at each sample point, plots of the cumulative ‘%deposited dose absorbed’ versus ‘time’ were generated and subject to nonlinear regression analysis according to a first-order absorption one-compartment accumulating model (Eq. 1) to generate estimates for the extent (F) and rate (Ka) of absorption from the IPML airways to the recirculating perfusate.
# The data was also subject to standard non-compartmental analysis, specifically Area Under Curve (AUC0–30 min) of ‘%deposited dose absorbed’ versus ‘time’ (units: %Dose.min) and reflecting for the exclusively accumulating perfusate ‘compartment’ the exposure arising from the IPML absorption process alone.
# [5] = biological target: T1, mouse Bcrp (Mus musculus, UniProt Q7TMS5); assay: Gentest ABC transporter membrane ATPase assay; format: biochemical; conditions: for Vmax: ATPase, 0 indicates no enzyme turnover
# T1 construct: purchased Corning (Gentest), Germany
# T1 sequence (Q7TMS5 1-657): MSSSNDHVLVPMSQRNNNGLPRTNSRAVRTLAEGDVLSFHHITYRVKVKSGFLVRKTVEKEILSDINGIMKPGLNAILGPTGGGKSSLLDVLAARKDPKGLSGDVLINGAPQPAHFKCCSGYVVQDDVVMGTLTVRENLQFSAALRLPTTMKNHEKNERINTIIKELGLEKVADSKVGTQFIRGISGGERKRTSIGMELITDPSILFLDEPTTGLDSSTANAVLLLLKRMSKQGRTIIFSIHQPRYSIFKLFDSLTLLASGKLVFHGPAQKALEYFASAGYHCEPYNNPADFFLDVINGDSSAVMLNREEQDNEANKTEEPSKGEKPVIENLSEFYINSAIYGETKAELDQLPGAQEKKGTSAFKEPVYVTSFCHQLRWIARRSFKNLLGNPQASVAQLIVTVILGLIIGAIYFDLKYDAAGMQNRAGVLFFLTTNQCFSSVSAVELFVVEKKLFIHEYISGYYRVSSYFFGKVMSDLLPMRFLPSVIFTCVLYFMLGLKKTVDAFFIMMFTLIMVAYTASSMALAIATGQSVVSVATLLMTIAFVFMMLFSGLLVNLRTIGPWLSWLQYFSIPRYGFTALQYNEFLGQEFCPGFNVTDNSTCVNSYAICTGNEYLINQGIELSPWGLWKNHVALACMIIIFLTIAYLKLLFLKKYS
# Description: (§1) The Gentest ATPase assay (Corning, Germany) was used to investigate the binding kinetics of the panel of P-gp substrates against membranes constituted to display human MDR1, mouse Mdr1a, mouse Mdr1b and mouse Bcrp. The assays measure the accumulation of inorganic phosphate (absorbance at 800 nm) produced in the breakdown of ATP to ADP. […] The assays were used in accordance with the manufacturer’s protocol to calculate (GraphPad Prism) the Michaelis-Menten parameters Km and VMAX. For the assay test compounds were serially diluted to produce an assay concentration range of 0–300 μM with the kinetics of ATP turnover examined over 30 min at 37°C.
# [6] = biological target: mouse Mdr1b (Mus musculus, UniProt P06795); assay: Gentest ABC transporter membrane ATPase assay; conditions: 0–300 μM, 30 min, 37°C
# mouse Mdr1b, sequence (P06795 whole entry): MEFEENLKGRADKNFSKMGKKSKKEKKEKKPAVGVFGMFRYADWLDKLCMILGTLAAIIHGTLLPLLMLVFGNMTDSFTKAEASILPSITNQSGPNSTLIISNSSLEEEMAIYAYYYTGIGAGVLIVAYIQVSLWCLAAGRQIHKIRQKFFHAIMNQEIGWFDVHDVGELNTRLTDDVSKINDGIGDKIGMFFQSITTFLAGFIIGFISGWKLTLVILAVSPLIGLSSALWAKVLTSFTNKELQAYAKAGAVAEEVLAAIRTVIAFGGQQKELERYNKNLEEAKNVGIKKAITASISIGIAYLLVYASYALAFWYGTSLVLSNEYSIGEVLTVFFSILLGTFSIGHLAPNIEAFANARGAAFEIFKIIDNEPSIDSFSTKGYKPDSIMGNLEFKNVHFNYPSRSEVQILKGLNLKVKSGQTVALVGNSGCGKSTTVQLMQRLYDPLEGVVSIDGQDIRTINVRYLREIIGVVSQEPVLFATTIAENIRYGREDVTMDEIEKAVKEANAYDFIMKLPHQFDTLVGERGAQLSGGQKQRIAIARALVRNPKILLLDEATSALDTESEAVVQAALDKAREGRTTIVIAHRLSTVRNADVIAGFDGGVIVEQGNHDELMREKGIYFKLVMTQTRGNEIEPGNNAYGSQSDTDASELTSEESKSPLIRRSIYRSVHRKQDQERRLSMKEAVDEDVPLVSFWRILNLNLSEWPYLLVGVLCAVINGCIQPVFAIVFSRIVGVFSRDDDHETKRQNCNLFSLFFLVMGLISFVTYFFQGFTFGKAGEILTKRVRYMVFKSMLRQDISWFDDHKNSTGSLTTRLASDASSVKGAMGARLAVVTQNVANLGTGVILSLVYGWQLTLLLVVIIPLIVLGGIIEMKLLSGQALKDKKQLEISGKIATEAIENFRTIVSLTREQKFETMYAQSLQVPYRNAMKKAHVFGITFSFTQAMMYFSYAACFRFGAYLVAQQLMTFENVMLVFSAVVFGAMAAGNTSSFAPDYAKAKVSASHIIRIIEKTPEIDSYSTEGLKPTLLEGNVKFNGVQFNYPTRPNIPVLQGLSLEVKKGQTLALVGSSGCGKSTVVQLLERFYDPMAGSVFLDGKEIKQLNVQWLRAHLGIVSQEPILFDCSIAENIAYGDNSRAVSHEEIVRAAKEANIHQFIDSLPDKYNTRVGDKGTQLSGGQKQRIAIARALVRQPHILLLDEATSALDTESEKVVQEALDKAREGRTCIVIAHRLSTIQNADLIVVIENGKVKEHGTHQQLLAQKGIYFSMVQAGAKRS
# Description: as §1
# [7] = biological target: mouse Mdr1a (Mus musculus, UniProt P21447); assay: Gentest ABC transporter membrane ATPase assay; conditions: 0–300 μM, 30 min, 37°C
# mouse Mdr1a, sequence (P21447 whole entry): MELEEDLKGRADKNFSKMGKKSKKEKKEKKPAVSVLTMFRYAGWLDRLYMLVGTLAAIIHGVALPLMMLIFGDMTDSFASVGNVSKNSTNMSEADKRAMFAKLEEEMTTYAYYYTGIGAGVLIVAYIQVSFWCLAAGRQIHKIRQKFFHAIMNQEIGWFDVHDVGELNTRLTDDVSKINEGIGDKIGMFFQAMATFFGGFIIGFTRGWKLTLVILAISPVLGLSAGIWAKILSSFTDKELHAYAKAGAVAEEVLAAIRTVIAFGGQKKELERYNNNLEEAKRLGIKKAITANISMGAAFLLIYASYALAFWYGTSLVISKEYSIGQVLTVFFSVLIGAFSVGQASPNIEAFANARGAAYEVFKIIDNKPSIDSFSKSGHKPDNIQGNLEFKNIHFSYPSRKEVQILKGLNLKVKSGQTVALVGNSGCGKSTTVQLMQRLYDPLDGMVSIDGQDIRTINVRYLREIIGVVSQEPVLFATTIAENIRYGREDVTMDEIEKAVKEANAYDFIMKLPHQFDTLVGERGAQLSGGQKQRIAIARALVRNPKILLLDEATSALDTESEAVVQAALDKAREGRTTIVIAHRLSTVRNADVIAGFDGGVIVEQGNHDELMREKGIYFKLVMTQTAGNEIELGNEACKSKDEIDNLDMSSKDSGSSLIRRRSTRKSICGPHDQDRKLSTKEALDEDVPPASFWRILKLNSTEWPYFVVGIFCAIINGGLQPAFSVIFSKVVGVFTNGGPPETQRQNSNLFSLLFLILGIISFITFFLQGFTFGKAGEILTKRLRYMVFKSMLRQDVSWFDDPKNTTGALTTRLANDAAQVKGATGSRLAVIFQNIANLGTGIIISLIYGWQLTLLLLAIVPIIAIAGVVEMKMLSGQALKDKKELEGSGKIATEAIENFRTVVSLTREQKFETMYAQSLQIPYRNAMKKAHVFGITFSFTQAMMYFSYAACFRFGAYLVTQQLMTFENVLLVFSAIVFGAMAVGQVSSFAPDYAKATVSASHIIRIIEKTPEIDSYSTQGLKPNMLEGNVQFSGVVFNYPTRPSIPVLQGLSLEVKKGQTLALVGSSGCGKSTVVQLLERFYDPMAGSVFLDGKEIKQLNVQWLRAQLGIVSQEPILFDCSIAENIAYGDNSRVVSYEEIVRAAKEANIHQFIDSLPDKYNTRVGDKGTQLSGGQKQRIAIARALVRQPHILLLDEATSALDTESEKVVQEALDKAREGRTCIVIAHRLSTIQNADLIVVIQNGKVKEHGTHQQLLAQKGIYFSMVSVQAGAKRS
# Description: as §1
# [8] = biological target: human MDR1 (Homo sapiens, UniProt P08183); assay: Gentest ABC transporter membrane ATPase assay; conditions: ATPase, 0–300 μM, 30 min, 37°C
# human MDR1, sequence (P08183 whole entry): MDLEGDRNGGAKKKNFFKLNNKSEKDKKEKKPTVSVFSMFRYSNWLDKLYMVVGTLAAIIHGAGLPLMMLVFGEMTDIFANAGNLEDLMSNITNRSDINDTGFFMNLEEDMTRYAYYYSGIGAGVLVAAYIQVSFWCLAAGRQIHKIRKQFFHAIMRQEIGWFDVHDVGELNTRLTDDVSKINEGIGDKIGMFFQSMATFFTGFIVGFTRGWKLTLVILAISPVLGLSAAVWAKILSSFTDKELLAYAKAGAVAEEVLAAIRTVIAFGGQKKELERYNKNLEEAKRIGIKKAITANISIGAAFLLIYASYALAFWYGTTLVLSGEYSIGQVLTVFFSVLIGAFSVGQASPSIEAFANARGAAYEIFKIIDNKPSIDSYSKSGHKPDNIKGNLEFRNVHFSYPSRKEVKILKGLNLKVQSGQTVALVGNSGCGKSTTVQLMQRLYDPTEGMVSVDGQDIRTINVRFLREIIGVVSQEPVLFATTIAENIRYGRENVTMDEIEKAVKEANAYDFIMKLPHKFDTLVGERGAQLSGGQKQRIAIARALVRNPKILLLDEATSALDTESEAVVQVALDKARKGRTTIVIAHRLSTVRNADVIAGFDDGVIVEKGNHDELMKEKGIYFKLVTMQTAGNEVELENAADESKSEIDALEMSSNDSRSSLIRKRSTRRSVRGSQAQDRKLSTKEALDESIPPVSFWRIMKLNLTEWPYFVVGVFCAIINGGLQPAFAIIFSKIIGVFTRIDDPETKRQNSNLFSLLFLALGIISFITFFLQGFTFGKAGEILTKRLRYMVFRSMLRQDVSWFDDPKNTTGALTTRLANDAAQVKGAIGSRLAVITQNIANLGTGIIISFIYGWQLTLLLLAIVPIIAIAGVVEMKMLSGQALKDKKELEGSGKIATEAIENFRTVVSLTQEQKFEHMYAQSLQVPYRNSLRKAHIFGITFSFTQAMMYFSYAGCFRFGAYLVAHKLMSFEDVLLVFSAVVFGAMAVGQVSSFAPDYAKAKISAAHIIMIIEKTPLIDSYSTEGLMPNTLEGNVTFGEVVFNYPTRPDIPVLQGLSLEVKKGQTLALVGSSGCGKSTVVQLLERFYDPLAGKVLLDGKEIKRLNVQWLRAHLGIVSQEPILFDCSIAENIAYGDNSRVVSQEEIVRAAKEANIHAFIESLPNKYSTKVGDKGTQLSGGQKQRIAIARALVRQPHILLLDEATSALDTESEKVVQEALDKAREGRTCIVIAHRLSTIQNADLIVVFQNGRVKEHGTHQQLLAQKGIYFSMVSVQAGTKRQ
# Description: as §1
# [9] = set-up: method as in PMID 12761811; conditions: nebulised solutions, anaesthetised rats, cited from earlier work
SMILES,LogK^IAM [1],Mdr1a/1b (−/−) Permeability coefficient [2],MLV Partitioning [3],Group (impact of Mdr1a/1b knockout on IPML absorption) [4],Mdr1a/1b (+/+) ‘F’ estimate by model fit [95% CI) [4],Mdr1a/1b (-/-) ‘F’ estimate by model fit [95% CI) [4],Ratio AUCs (-/-) : (+/+) [4],Mdr1a/1b (+/+) % Deposited Dose absorbed [4],Mdr1a/1b (-/-) % Deposited Dose absorbed [4],Ratio Permeability (−/−): (+/+) [2],Mdr1a/1b (+/+) Permeability coefficient [2],Vmax [5],Vmax [6],Vmax [7],Vmax [8],interaction with Bcrp (ATP turnover) ([5]; mouse Bcrp membrane model),extent of pulmonary absorption ([9]; mM concentrations),t^1/2absorption [9]
"CCN(CC)CCCC(C)Nc1ccnc2cc(Cl)ccc12 (centres unmarked) [Chloroquine, chloroquine]",1.43,23.39 ± 4.18 cm/s (x10^−6),,,,,,,,,,,,,,,,
"O=c1[nH]c2ccccc2n1CCCN1CCC(n2c(=O)[nH]c3cc(Cl)ccc32)CC1 [Domperidone, domperidone]",1.33,,0.92,,,,,,,,,,,,,,,
"CN1CCC[C@@H]1Cc1c[nH]c2ccc(CCS(=O)(=O)c3ccccc3)cc12 [Eletriptan, eletriptan]",1.46,11.04 ± 2.17 cm/s (x10^−6),0.94,GROUP B,18.5 [16.5 to 20.5],25.8 [23.6 to 27.9],1.39,17.9%,26.6%,2.26,4.90 ± 2.51 cm/s (x10^−6),0 µM/min,,,,,,
"CC[C@H]1OC(=O)[C@H](C)[C@@H](O[C@H]2C[C@@](C)(OC)[C@@H](O)[C@H](C)O2)[C@H](C)[C@@H](O[C@@H]2O[C@H](C)C[C@H](N(C)C)[C@H]2O)[C@](C)(O)C[C@@H](C)C(=O)[C@H](C)[C@@H](O)[C@]1(C)O [Erythromycin, erythromycin]",0.88,13.70 ± 4.54 cm/s (x10^−6),0.46,GROUP A,,,,55.5%,54.1%,,3.02 ± 1.15 cm/s (x10^−6),0 µM/min,48.5 µM/min,28.4 µM/min,,,,
"CCc1cc2c(cc1CC)CC(NC[C@H](O)c1ccc(O)c3[nH]c(=O)ccc13)C2 [Indacaterol, indacaterol]",1.23,29.22 ± 4.40 cm/s (x10^−6),0.92,GROUP B,29.3 [25.5 to 33.1],40.6 [36.7 to 44.5],1.37,27.6%,37.3%,1.92,15.2 ± 2.79 cm/s (x10^−6),0 µM/min,132 µM/min,119 µM/min,81.1 µM/min,,,
"O=C1c2c(O)ccc(O)c2C(=O)c2c(NCCNCCO)ccc(NCCNCCO)c21 [Mitoxantrone, mitoxantrone]",1.13,13.70 ± 2.69 cm/s (x10^−6),0.59,GROUP A,26.4 [21.9 to 30.9],24.9 [20.8 to 28.9],,25.1%,23.3%,,4.69 ± 1.06 cm/s (x10^−6),4.79 µM/min,35.0 µM/min,27.5 µM/min,,showed evidence of interactions with Bcrp,,
"COc1ccc(C[C@H](N)C(=O)N[C@H]2[C@@H](O)[C@H](n3cnc4c(N(C)C)ncnc43)O[C@@H]2CO)cc1 [Puromycin, puromycin]",1.31,14.95 ± 2.33 cm/s (x10^−6),0.62,GROUP A,48.2 [43.7 to 52.8],56.1 [48.1 to 64.1],1.01,46.9%,49.3%,2.56,5.83 ± 2.38 cm/s (x10^−6),0 µM/min,31.5 µM/min,16.5 µM/min,19.6 µM/min,,,
"OCc1cc(C(O)CNCCCCCCOCCCCc2ccccc2)ccc1O (centres unmarked) [Salmeterol, salmeterol]",1.60,18.33 ± 2.38 cm/s (x10^−6),0.80,GROUP B,42.9 [34.6 to 47.2],57.3 [48.3 to 66.3],1.37,36.7%,48.7%,1.16,15.8 ± 2.16 cm/s (x10^−6),0 µM/min,38.2 µM/min,27.5 µM/min,24.4 µM/min,,,
CCCCc1nc(Cl)c(CO)n1Cc1ccc(-c2ccccc2-c2nn[nH]n2)cc1 [losartan],,,,,,,,,,,,,,,,,92%,5 min
